Structures can show the parent of a compound that is named as a salt.

Data set [1] relates to Ridgeway osteogenic sarcoma. The following applies: mouse, in vivo; cited from earlier work.
A further data set concerns Gardner lymphosarcoma. Conditions: mouse, in vivo; cited from earlier work.
The next data set relates to P 1534(J) leukemia. Conditions: mouse, in vivo; cited from earlier work.
For a further data set, the system named is transplanted tumors. Conditions: mouse, in vivo; cited from earlier work.
The conditions of data set [2]: in humans, compared with vincristine; cited from earlier work.
Data set [3] concerns vincristine-resistant leukemias. The following applies: in humans; cited from earlier work.
Data set [4] deals with human leukemic cells (CCRF-CEM cell line). Briefly: CCRF-CEM Cytotoxicity Assay (72 h, Coulter particle counter). The following applies: 37° C., read-out: IC50 (concentration giving 50% growth inhibition). The format is cell-based. The protocol: The CEM cells were grown in RPMI 1640 media (MA Bioproducts) at 37° C. in humidified atmospheric conditions of 95% air and 5% CO2. The cells were grown in static suspension and maintained in log growth phase at a concentration of 3-7×10^5 cells/ml. The cells were dispersed in wells at a concentration of 4.8×10^4 /well. The drug was dissolved in dimethyl sulfoxide and was added at different dilutions to the cluster plates (wells). The cluster plates were incubated at 37° C. for 72 hours. After 72 hours the wells were read using a ZBI Coulter particle counter. Table 3 below gives the results of such testing of several compounds represented by Formula I above. In the table, Column 1 gives the name of the compound and Column 2 gives the IC50 (concentration giving 50% growth inhibition) in μg/ml.

Data set [5] relates to human lung adenocarcinoma cells (P3/UCLA cell line). Briefly: P3/UCLA - GIEMSA ASSAY (5 days). Conditions: 120 h, 37° C., free compound, read-out: IC50 (concentration giving 50% growth inhibition). The class given is cell-based.
The subject of data set [6] is P3/UCLA lung adenocarcinoma xenografts. Put plainly: in vivo test against xenografts of P3/UCLA lung adenocarcinoma in female nude mice. Conditions: days 2, 5 and 8, 28-day results. The procedure: The compounds were tested in vivo against xenografts of P3/UCLA lung adenocarcinoma in female nude mice. The test was begun by implanting each mouse with 10^7 P3/UCLA tumor cells, subcutaneously. On each of days 2, 5, and 8 after implantation, each mouse was injected with a conjugate or a compound in physiological buffered saline. Control mice were injected with saline only. The doses of conjugate or of vinca intermediate (based on vinca hydrazide content) are indicated below. The size of the tumors induced by implantation was measured on days 14, 21, and 28 after implantation. Each treatment group consisted of five mice.

For `CCC1(O)CC2CN(CCc3c([nH]c4ccccc34)C(C(=O)OC)(c3cc4c(cc3OC)N(C)C3C(O)(C(=O)NN)C(O)C5(CC)C=CCN6CCC43C65)C2)C1` (stereo not shown) [4-desacetyl VLB C-3 carboxhydrazide], the “activity against Ridgeway osteogenic sarcoma” value in data set [1] was “active”. Besides, the “activity against Gardner lymphosarcoma” value in the data set with Gardner lymphosarcoma is listed as “active”. Besides, in the data set on P 1534(J) leukemia, the “activity against P 1534(J) leukemia” value is “active”. Further, the anti-tumor activity entry in the data set with transplanted tumors is recorded as “active anti-tumor agent against transplanted tumors in mice”.
`CC[C@]1(O)C[C@@H]2CN(CCc3c([nH]c4ccccc34)[C@@](C(=O)OC)(c3cc4c(cc3OC)N(C)[C@H]3[C@@](O)(C(N)=O)[C@H](O)[C@]5(CC)C=CCN6CC[C@]43[C@@H]65)C2)C1` [vindesine, 4-desacetyl VLB C-3 carboxamide]: the neurotoxicity entry in data set [2] is on record as “less neurotoxicity than does vincristine”. Besides, the “effective against vincristine-resistant leukemias” value in [3] is given as “apparently effective against vincristine-resistant leukemias”.
On to `CCC1(O)CC2CN(CCc3c([nH]c4ccccc34)C(C(=O)OC)(c3cc4c(cc3OC)N(C)C3C(O)(C(=O)NNC(C)CCCCC(=O)NCCC(=O)O)C(O)C5(CC)C=CCN6CCC43C65)C2)C1` (stereo not shown) [Example 17, 4-Desacetyl VLB C-3 N^2-(6-[(2-carboxyethyl)amino]-1-methyl-6-oxohexyl)carboxhydrazide sulfate salt], for which the figures for the IC50 in data set [4] and in data set [5] were 0.039 µg/mL and 0.217 µg/mL, respectively. The entries for the “% Inhibition” value in [6] (1.00 mg/kg (based on vinca hydrazide content)) and in data set [6] (2.00 mg/kg (based on vinca hydrazide content)) were 20% and 39%, respectively.

(Values after patent US5043340A, “Derivatives of 4-desacetyl VLB C-3 carboxhydrazide” (Eli Lilly and Company, priority 1990, dated 1991).)
